The test system of data set [1] is monocultures of primary bovine BCECs. The data set is described as follows: Live cell peptide uptake. The data set is classed as cell-based. Conditions: 1 h, 37 °C, live cell imaging; 100 µM TAMRA-NR2B9c, 50 µM Tat peptides (method) / 100 µM (Figure 4 legend). Here is the method:
BCECs were obtained from a batch of isolated capillary fragments and cultured as described in Section 2.2. Following trypsinization on day 5, the BCECs were re-suspended in differentiation medium and 90,000/cm^2 seeded on collagen- and fibronectin-coated (both 10 µg/mL in PBS) LabTek® microscope slides (Merck, Søborg, Denmark). The cells were left in the incubator (10% CO2, 37 °C) for 48 h prior to use. […] The test solutions were removed and pre-warmed media containing 300 nM Hoechst and Lysotracker® (1:20,000; Thermo Fischer Scientific, Bedford, MA, USA) applied to the cells for 10 min at 37 °C. The cells were gently washed twice in 37 °C hHBSS and immediately imaged in FluoBrite medium (Thermo Fischer Scientific, Bedford, MA, USA). Images were captured using an Olympus IX-83 fluorescent microscope (Olympus, Hamburg, Germany) equipped with a Yokogawa CSU-X spinning disc unit (Yokogawa, Tokyo, Japan) and Andor iXon Ultra 897 camera (Oxford Instruments, Abingdon, Great Britain) using cellSens software (Olympus, Hamburg, Germany).

Data set [2] relates to bovine BCEC monolayers co-cultured with rat astrocytes. The data set is described as follows: Transport and cell uptake of 3-5 kDa FITC-dextran in the presence of peptide (bovine model). The conditions noted are these: 1 mg/mL FITC-dextran with 100 µM peptide, luminal, 3 h, abluminal FITC fluorescence; N = 3, n = 3. It is filed as cell-based. As to the method: Transport across bovine or mouse BCEC monolayers co-cultured with rat astrocytes was carried out over 3 h at 37 °C with horizontal shaking (90 rpm). TEER was measured at room temperature using an Endohm 12 cup (World Precision Instruments, Sarasota, FL, USA) connected to a Millicell-ERS device (Millipore, Bedford, MA, USA). TEER was measured before application of the peptides and after each experiment. The bovine model had initial TEER values ranging from 771 to 1332 Ω·cm^2, whereas the mouse model had initial TEER values ranging from 136 to 217 Ω·cm^2.
FITC fluorescence was measured using a NovoStar fluorescence plate reader (BMG Labtech, Offenburg, Germany) with excitation/emission set to 494/518 nm. […] The filters were washed with PBS thrice for 5 min, mounted on glass slides under coverslips using Immu-Mount™ mounting media (Thermo Fischer Scientific, Bedford, MA, USA), and imaged using single wavelength excitation on a Leica SP2 laser-scanning confocal microscope (Leica Microsystems, Wetzlar, Germany).

Peptide text beside a SMILES is read from it. * marks the point of attachment. 5TAMRA = CN(C)c1ccc2c(c1)Oc1cc(N(C)C)ccc1C21OC(=O)c2cc(C(=O)*)ccc21

`CN(C)c1ccc2c(c1)Oc1cc(N(C)C)ccc1C21OC(=O)c2cc(C(=O)N[C@@H](Cc3ccc(O)cc3)C(=O)NCC(=O)N[C@@H](CCCNC(=N)N)C(=O)N[C@@H](CCCCN)C(=O)N[C@@H](CCCCN)C(=O)N[C@@H](CCCNC(=N)N)C(=O)N[C@@H](CCCNC(=N)N)C(=O)N[C@@H](CCC(N)=O)C(=O)N[C@@H](CCCNC(=N)N)C(=O)N[C@@H](CCCNC(=N)N)C(=O)N[C@@H](CCCNC(=N)N)C(=O)O)ccc21` [TAMRA-Tat]: the “peptide uptake into live BCECs” value in data set [1] is “taken up into vesicular structures to a similar extent”.

`CC[C@H](C)[C@H](NC(=O)CCOCCOCCN(CCOCCOCCC(=O)N[C@H](C(=O)N[C@@H](CCC(=O)O)C(=O)N[C@H](C(=O)N[C@@H](CC(=O)O)C(=O)N[C@H](C(=O)O)C(C)C)[C@@H](C)O)[C@@H](C)CC)C(=O)[C@H](CCCNC(=N)N)NC(=O)[C@H](CCCNC(=N)N)NC(=O)[C@H](CCCNC(=N)N)NC(=O)[C@H](CCC(N)=O)NC(=O)[C@H](CCCNC(=N)N)NC(=O)[C@H](CCCNC(=N)N)NC(=O)[C@H](CCCCN)NC(=O)[C@H](CCCCN)NC(=O)[C@H](CCCNC(=N)N)NC(=O)CNC(=O)[C@H](Cc1ccc(O)cc1)NC(=O)c1ccc2c(c1)C(=O)OC21c2ccc(N(C)C)cc2Oc2cc(N(C)C)ccc21)C(=O)N[C@@H](CCC(=O)O)C(=O)N[C@H](C(=O)N[C@@H](CC(=O)O)C(=O)N[C@H](C(=O)O)C(C)C)[C@@H](C)O` [TAMRA-Tat-N-dimer]: in data set [1], the “peptide uptake into live BCECs” value is given as “taken up into vesicular structures to a similar extent”. For the same molecule, the “transendothelial permeation of 3-5 kDa FITC-dextran applied with peptide, compared to FITC-dextran alone” value in data set [2] was “did not increase”.

As for `CC[C@H](C)[C@H](NC(=O)[C@H](CO)NC(=O)[C@H](CO)NC(=O)[C@H](CC(C)C)NC(=O)[C@H](CCCCN)NC(=O)c1ccc2c(c1)C(=O)OC21c2ccc(N(C)C)cc2Oc2cc(N(C)C)ccc21)C(=O)N[C@@H](CCC(=O)O)C(=O)N[C@@H](CO)C(=O)N[C@@H](CC(=O)O)C(=O)N[C@H](C(=O)O)C(C)C` [TAMRA-NR2B9c] (5TAMRA-KLSSIESDV-OH), the “peptide uptake into live BCECs” value in data set [1] is listed as “No uptake”.

As for `CC[C@H](C)[C@H](NC(=O)[C@H](CO)NC(=O)[C@H](CO)NC(=O)[C@H](CC(C)C)NC(=O)[C@H](CCCCN)NC(=O)[C@H](CCCNC(=N)N)NC(=O)[C@H](CCCNC(=N)N)NC(=O)[C@H](CCCNC(=N)N)NC(=O)[C@H](CCC(N)=O)NC(=O)[C@H](CCCNC(=N)N)NC(=O)[C@H](CCCNC(=N)N)NC(=O)[C@H](CCCCN)NC(=O)[C@H](CCCCN)NC(=O)[C@H](CCCNC(=N)N)NC(=O)CNC(=O)[C@H](Cc1ccc(O)cc1)NC(=O)c1ccc2c(c1)C(=O)OC21c2ccc(N(C)C)cc2Oc2cc(N(C)C)ccc21)C(=O)N[C@@H](CCC(=O)O)C(=O)N[C@@H](CO)C(=O)N[C@@H](CC(=O)O)C(=O)N[C@H](C(=O)O)C(C)C` [TAMRA-Tat-NR2B9c] (5TAMRA-YGRKKRRQRRRKLSSIESDV-OH), the “peptide uptake into live BCECs” value in data set [1] is on record as “taken up into vesicular structures to a similar extent”.

The values are drawn from paper PMC7408072 (Pharmaceutics, 2020).
